These compounds were tested against T1, hGLP-1 receptor (Homo sapiens, UniProt P43220) (assay: Agonist activity against GLP-1 receptor (CRE-luciferase reporter, ONE-Glo Luciferase Assay System)). Conditions: CHO-K1/CRE-luc/hGLP-1 receptor cells; 5 h incubation with compound; chemiluminescence readout.
T1 construct: expressed in transfected cells; host or cells: CHO-K1 (stably transfected with hGLP-1 receptor plasmid and CRE-luc plasmid)
Type: cell-based
Source text: This experiment was intended to test the agonist activity of compound molecules against hGLP-1 receptor and evaluate the in vitro activity of the molecules according to EC50. In this experiment, ONE-Glo™ Luciferase Assay System (ONE-Glo™ Luciferase Assay System, Promega, E6110) was used. Under the action of the compound molecules, GLP-1R downstream signaling pathways were activated to cause elevated cAMP level. The binding of cAMP to CRE could initiate the transcriptional expression of a CRE downstream luciferase gene. The luciferase could emit fluorescence when reacting with a substrate thereof. The fluorescence signal, which reflected the activity of the compound for agonizing GLP-1 receptor, was measured by means ONE-Glo™ reagent.
A stably transfected CHO-K1/CRE-luc/hGLP-1 receptor cell strain (hGLP-1 receptor plasmid constructed in-house and CRE-luc plasmid Promega E8471) was constructed. CHO-K1/CRE-luc/hGLP-1 receptor cells were digested, centrifuged, and then resuspended. The single cell suspension was uniformly mixed and adjusted to a viable cell density of 2.78 × 10^5 cells/ml with a cell culture medium (DME/F-12 + 10% FBS). The resulting solution was added to a 96-well cell culture plate at 90 µL/well (Corning, #3903). The culture plate was incubated in an incubator for 16 h (37°C, 5% CO2).
The compound was dissolved in DMSO to prepare a stock solution with an initial concentration of 20 mM. The starting concentration of the small molecule compound was 0.02 mM. The compound was subjected to 3-fold dilution for 10 points, wherein the 11th point was DMSO. Another 96-well plate was taken, to which was added 95 µL/well of a cell culture medium (DME/F-12 + 10% FBS), followed by 5 µL/well of test samples with different concentrations. The mixtures were uniformly mixed. Next, 10 µL/well of test samples with different concentrations were added to the cell culture plate, with two duplicate wells for each sample. The culture plate was incubated in an incubator for 5 h (37°C, 5% CO2). The 96-well cell culture plate was taken out. 100 µL/well of ONE-Glo™ reagent was added, followed by incubation at room temperature for 10 minutes. Chemiluminescence was measured in and by a microplate reader (PHERAstar FS, BMG labtech).
Data were processed and analyzed using Microsoft Excel and Graphpad Prism 10. EC50 values of the compounds were obtained. Table 1. Agonist activity of the compounds of the present invention against hGLP-1 receptor

T1 sequence (P43220 24-463): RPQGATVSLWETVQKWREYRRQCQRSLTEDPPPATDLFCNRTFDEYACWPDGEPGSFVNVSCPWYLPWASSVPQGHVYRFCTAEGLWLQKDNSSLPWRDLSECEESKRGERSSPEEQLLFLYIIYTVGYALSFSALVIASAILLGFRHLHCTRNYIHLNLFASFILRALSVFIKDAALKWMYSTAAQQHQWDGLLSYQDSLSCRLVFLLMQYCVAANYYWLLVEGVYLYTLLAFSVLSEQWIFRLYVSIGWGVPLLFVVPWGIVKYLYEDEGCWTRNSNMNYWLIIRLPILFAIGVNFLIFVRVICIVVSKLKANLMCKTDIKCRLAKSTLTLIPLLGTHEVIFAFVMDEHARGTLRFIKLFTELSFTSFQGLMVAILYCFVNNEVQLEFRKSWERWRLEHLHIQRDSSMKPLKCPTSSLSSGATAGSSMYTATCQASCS

| EC50 | Emax | SMILES |
| --- | --- | --- |
| 50 pM | 19.67 fold | C[C@H]1c2c(nn(-c3ccc(F)c(C4CC4)c3)c2-c2cncn(-c3ccc4c(cnn4C)c3)c2=O)CCN1C(=O)c1cc2cc([C@H]3CCOC(C)(C)C3)ccc2n1[C@@]1(c2noc(=O)[nH]2)C[C@@H]1C [Compound 42, 3-((1S,2S)-1-(2-((S)-2-(3-cyclopropyl-4-fluorophenyl)-4-methyl-3-(1-(1-methyl-1H-indazol-5-yl)-6-oxo-1,6-dihydropyrimidin-5-yl)-4,5,6,7-tetrahydro-2H-pyrazolo[4,3-c]pyridine-5-carbonyl)-5-((S)-2,2-dimethyltetrahydro-2H-pyran-4-yl)-1H-indol-1-yl)-2-methylcyclopropyl)-1,2,4-oxadiazol-5(4H)-one] |
| 20 pM | 19.58 fold | Cc1cc(-n2nc3c(c2N2C[C@@H]4COc5cc6c(cnn6CC(F)(F)F)c(F)c5N4C2=O)[C@H](C)N(C(=O)c2cc4cc([C@H]5CCOC(C)(C)C5)ccc4n2[C@@]2(c4noc(=O)[nH]4)C[C@@H]2C)CC3)cc(C)c1F [Compound 29, (R)-2-((S)-5-(5-((S)-2,2-dimethyltetrahydro-2H-pyran-4-yl)-1-((1S,2S)-2-methyl-1-(5-oxo-4,5-dihydro-1,2,4-oxadiazol-3-yl)cyclopropyl)-1H-indole-2-carbonyl)-2-(4-fluoro-3,5-dimethylphenyl)-4-methyl-4,5,6,7-tetrahydro-2H-pyrazolo[4,3-c]pyridin-3-yl)-10-fluoro-7-(2,2,2-trifluoroethyl)-2,3,3a,4-tetrahydro-1H,7H-imidazo[1',5':4,5][1,4]oxazino[3,2-f]indazol-1-one] |
| 50 pM | 16.76 fold | C[C@H]1c2c(nn(-c3ccc(F)c(C4CC4)c3)c2N2C[C@@H]3COc4cc5c(cnn5C5CC5)c(F)c4N3C2=O)CCN1C(=O)c1cc2cc([C@H]3CCOC(C)(C)C3)ccc2n1[C@@]1(c2noc(=O)[nH]2)C[C@@H]1C [Compound 46, (R)-7-cyclopropyl-2-((S)-2-(3-cyclopropyl-4-fluorophenyl)-5-(5-((S)-2,2-dimethyltetrahydro-2H-pyran-4-yl)-1-((1S,2S)-2-methyl-1-(5-oxo-4,5-dihydro-1,2,4-oxadiazol-3-yl)cyclopropyl)-1H-indole-2-carbonyl)-4-methyl-4,5,6,7-tetrahydro-2H-pyrazolo[4,3-c]pyridin-3-yl)-10-fluoro-2,3,3a,4-tetrahydro-1H,7H-imidazo[1',5':4,5][1,4]oxazino[3,2-f]indazol-1-one] |
| 30 pM | 19.36 fold | Cc1cc(-n2nc3c(c2N2C[C@@H]4COc5cc6c(cnn6C(C)C)c(F)c5N4C2=O)[C@H](C)N(C(=O)c2cc4cc([C@H]5CCOC(C)(C)C5)ccc4n2[C@@]2(c4noc(=O)[nH]4)C[C@@H]2C)CC3)cc(C)c1F [Compound 40, (R)-2-((S)-5-(5-((S)-2,2-dimethyltetrahydro-2H-pyran-4-yl)-1-((1S,2S)-2-methyl-1-(5-oxo-4,5-dihydro-1,2,4-oxadiazol-3-yl)cyclopropyl)-1H-indole-2-carbonyl)-2-(4-fluoro-3,5-dimethylphenyl)-4-methyl-4,5,6,7-tetrahydro-2H-pyrazolo[4,3-c]pyridin-3-yl)-10-fluoro-7-isopropyl-2,3,3a,4-tetrahydro-1H,7H-imidazo[1',5':4,5][1,4]oxazino[3,2-f]indazol-1-one] |
| 90 pM | 19.88 fold | Cc1cc(-n2nc3c(c2-c2cccn(-c4ccc5c(cnn5C)c4)c2=O)[C@H](C)N(C(=O)c2cc4cc([C@H]5CCOC(C)(C)C5)ccc4n2[C@@]2(c4noc(=O)[nH]4)C[C@@H]2C)CC3)cc(C)c1F [Compound 3, 3-((1S,2S)-1-(5-((S)-2,2-dimethyltetrahydro-2H-pyran-4-yl)-2-((S)-2-(4-fluoro-3,5-dimethylphenyl)-4-methyl-3-(1-(1-methyl-1H-indazol-5-yl)-2-oxo-1,2-dihydropyridin-3-yl)-4,5,6,7-tetrahydro-2H-pyrazolo[4,3-c]pyridine-5-carbonyl)-1H-indol-1-yl)-2-methylcyclopropyl)-1,2,4-oxadiazol-5(4H)-one] |

Source: patent publication EP4813984A1 (Jiangsu Hengrui Pharmaceuticals Co., Ltd., priority 2023, dated 2025)
